Measured values from US11639372B1, “Zinc-charged peptides for the treatment of cancer and alzheimer's disease” (priority 2021, dated 2023).
Several values for one entry are separate records, joined by “and”; a condition that tells them apart may be missing. Identical values can stand only once. Ends that are not written are not given here.

Key:
[1] = test system: HT-29 cancer cells; experiment: tissue distribution: mouse tissue homogenates incubated with HT-29 cells, percentage of cells under apoptosis; assay type: cell-based; conditions: mice, five days administration
Method: These observations were confirmed by studying the tissue distribution of the zinc-charged 4H3 in mice after five days administration, as shown in FIG. 3. For these tests, tissue homogenates were taken from the mice five days after receiving the zinc-charged 4H3, then prepared and incubated with HT-29 cancer cells for various times, followed by the determination of the percentage of cell under apoptosis.

[2] = test system: P38 MAPK; experiment: brain P38 MAPK level in mice; assay type: in vivo; conditions: 1 mg/day for 5 days, oral
Method: (§1) FIGS. 11a-d provide the graphical representations of these observations. FIG. 11a depicts the level of brain ATP in mice that were orally administered zinc-charged 4H3 compared to mice who were given the control. […] FIG. 11b depicts the level of brain Tau protein ATP in mice that were orally administered zinc-charged 4H3 compared to mice who were given the control. In this test, a 2.7 μg protein load was utilized. […] FIG. 11c depicts a retest of FIG. 11b, but with a lower protein load utilized instead. […] Lastly, FIG. 11d depicts the brain P38 MAPK levels in mice that were orally administered zinc-charged 4H3 compared to mice who were given the control. In this test, the mice given the zinc-charged 4H3 saw their brain P38 MAPK levels decrease by 61%.

[3] = test system: respiratory chain I; experiment: respiratory chain I activity, mitochondria of normal colon cells; assay type: biochemical; conditions: normal CCD8Co colon cells; 5 μM, 2 hours (FIG. 15c)
Method: (§2) For the testing depicted in FIGS. 15a-15d, […] zinc-charged 4H3 was utilized and compared to a control. In this test, mitochondria was isolated from the cell line, and complex I and III activity was tested using a Cayman Mitocheck Complex I & III Activity Kit. […] However, the zinc-charged 4H3 increased the activity of respiratory chain I by 21% but inhibited respiratory chain III by 42% in normal CCD8Co colon cells.

[4] = pharmacokinetic study, serum half-life; assay type: in vivo
[5] = test system: respiratory chain III; experiment: respiratory chain III activity, mitochondria of normal colon cells; assay type: biochemical; conditions: normal CCD8Co colon cells; 5 μM, 2 hours (FIG. 15d)
Method: as §2

[6] = test system: respiratory chain I; experiment: respiratory chain I activity, mitochondria isolated from HT-29 cells; assay type: biochemical; conditions: HT-29 colon cancer cells; 5 μM, 2 hours (FIG. 15a)
Method: as §2

[7] = test system: HT-29 colon cancer cells; experiment: apoptotic effect on HT-29 cells of saliva from a human volunteer after oral zinc-charged 4H3; assay type: cell-based; conditions: for time at which saliva-induced apoptotic activity peaked: human volunteer
Method: It has been shown that the zinc-charged peptide induces apoptosis in various cancer lines. FIGS. 1a, 1b, and 2 show this effect of the zinc-charged peptide on the HT-29 cancer cell line after the zinc-charged peptide was given to a human volunteer. Specifically, 200 mg of zinc-charged 4H3 was orally given to the volunteer in a liquid form. The peptide mixture was an undialyzed sample, such that the zinc-charged 4H3 in the liquid had not yet been separated from the saturated EDTA and free zinc.
Saliva samples were then collected from the volunteer at 4-, 6-, 8-, 9-, 12- and 17-hours post-ingestion of the zinc-charged 4H3. The saliva samples were then incubated with HT-29 cancer cells for either 14-hours or 24-hours to observe the apoptotic effect. FIG. 1a depicts the percentage of cell shrinkage and death of HT-29 colon cancer cells after incubation for 14- and 24-hours with the human saliva samples containing the zinc-charged 4H3 noted above. As shown, the saliva sample collected 4-hours post-ingestion has little effect on the HT-29 cancer cells. […] The saliva-induced apoptotic activity thus peaked at 9-hours post-ingestion.
FIGS. 1B-f depicts microscopic slides of the HT-29 cancer cells after being incubated for […] with specific saliva samples. […] FIG. 1d depicts the saliva sample taken from the volunteer 4 hours after the zinc-charged peptide was ingested. FIGS. 1e and 1f depict saliva samples collected from the volunteer after 10-hour ingestion.
FIG. 2 depicts a dry, solid sample of the zinc-charged 4H3 that was administered to a human volunteer. Specifically, 150 mg of zinc-charged 4H3 was orally given to the volunteer in a dry solid form. This sample was dialyzed, dried down, and had arginine added as an absorption enhancer such that the dried powder included only the zinc-charged 4H3 and arginine. As with the test shown in FIG. 1a, the saliva samples were taken from the human subject 0-, 3-, 6-, 9-, 12-, 15-, 18-, 21-, and 24-hours post-ingestion. The saliva samples were then incubated with HT-29 cancer cells, and their apoptotic activity recorded after 6-, 10-, 14-, and 24-hours.

[8] = test system: glutaminase; experiment: glutaminase activity in HT-29 cell lysate; assay type: cell-based; conditions: HT-29, 2 μM, 30-90 minutes
Text: FIGS. 16a-b depict the zinc-charged peptides inhibiting glutaminase activity in HT-29 cancer cells. Glutaminase is another important enzyme responsible for the synthesis of ATP in mitochondria. […] The inhibition of the enzyme glutaminase, along with the inhibition of respiratory chains in cancer cells explain the depletion of ATP in cancer cells shown in FIG. 5.

[9] = test system: respiratory chain III; experiment: respiratory chain III activity, mitochondria isolated from HT-29 cells; assay type: biochemical; conditions: HT-29 colon cancer cells; 5 μM, 2 hours (FIG. 15b)
Method: as §2

[10] = test system: human pancreatic cancer Bx-PC3-G mouse orthotopic model; experiment: orthotopic pancreatic cancer model in mice; assay type: in vivo; conditions: oral, 21-day period
Method: In this test, two doses of zinc-charged 4H3 and a control of only the vehicle were orally administered to mice with orthotopic pancreatic cancer. The zinc-charged 4H3 was administered in a “low dose” of 0.5 mg per mouse and a “high dose” of 1.0 mg per mouse.

[11] = test system: cancer-associated fibroblasts; experiment: cellular ATP level in cancer-associated fibroblasts; assay type: cell-based; conditions: 2 μM, 2 hours
Method: FIGS. 12a-b display a cell culture study showing the ATP levels and hexokinase II activities of CAFs that were cultured with 2 μM zinc-charged 4H3 for 2 hours. […] These findings confirmed that the zinc-charged peptides caused ATP depletion and hexokinase II inhibition in CAFs.

[12] = test system: Tau protein; experiment: brain Tau protein in mice (ELISA); assay type: in vivo; conditions: for decrease in brain Tau protein: 1 mg/mouse, 5 days, oral
Method: as §1

[13] = brain ATP level in mice fed zinc-charged 4H3; assay type: in vivo; conditions: 1 mg/day for 5 days, oral
Method: as §1

Sequence: EYGLFQISNKK [zinc-charged 4H3]
- apoptosis activity of tissue homogenate ([1]; colon): did not display any apoptosis activity
- apoptosis activity of tissue homogenate ([1]; jaw): did not display any apoptosis activity
- apoptosis activity of tissue homogenate ([1]; lung): did not display any apoptosis activity
- apoptosis activity of tissue homogenate ([1]; pancreas): contained apoptosis activity
- reduction of brain P38 MAPK [2]: 61%
- increase of activity of respiratory chain I [3]: 21%
- half-life [4]: 8 h
- inhibition of respiratory chain III [5]: 42%
- inhibition of respiratory chain I [6]: 70.9%
- time at which saliva-induced apoptotic activity peaked ([7]; 150 mg oral, dry solid form with arginine): 12 h
- time at which saliva-induced apoptotic activity peaked ([7]; 200 mg oral, liquid form, undialyzed): 9 hours post-ingestion
- effect of saliva sample on HT-29 cancer cells ([7]; saliva 4 hours after ingestion, 36 hours incubation): very little effect
- effect of saliva sample on HT-29 cancer cells ([7]; saliva after 10-hour ingestion, 36 hours incubation): clear apoptosis activity
- effect of saliva sample on HT-29 cancer cells ([7]; saliva collected 4-hours post-ingestion, 14- and 24-hour incubation, 200 mg liquid): little effect
- effect of saliva sample on HT-29 cancer cells ([7]; saliva collected 10-hours post-ingestion, 14-hour and 24-hour incubations, 200 mg liquid): cell rounded up, cell shrinkage, and membrane blebbing
- amount of glutamate and alpha-ketoglutarate [8]: lower amount
- glutaminase activity in the cell lysate [8]: significantly lower glutaminase activity
- inhibition of respiratory chain III [9]: 71.2%
- reduction of mean tumor size ([10]; high dose 1.0 mg per mouse): 38.0%
- reduction of mean tumor size ([10]; low dose 0.5 mg per mouse): 28.1%
- reduction of ATP levels in CAFs [11]: 95.6%
- reduction of Tau protein in the brain ([12]; 1 mg/day for 5 days, both protein loads): 22.4-27.5%
- decrease in brain Tau protein ([12]; 0.55 μg protein load): 22.4%
- decrease in brain Tau protein ([12]; 2.7 μg protein load): 27.5%
- increase of brain ATP [13]: 89.9% and 89.8%
